Broadly, the Ki is a measure of affinity in units of concentration, obtained from inhibition or displacement. A high value points to weaker binding. The term EC50 denotes the concentration at which the effect is half-maximal. Low readings indicate a more potent agent, high ones a less potent agent. Broadly, the IC50 is the concentration at which inhibition is half-maximal. Read a high IC50 as a need for much substance.

Here are results for nine compounds from ChEMBL document CHEMBL1127907, “Design of a potent 5-HT4 receptor agonist with nanomolar affinity” (Bioorg Med Chem Lett, 1994).

Experiment [1] addresses T1, 5-hydroxytryptamine receptor 4 (Rattus norvegicus, UniProt Q62758). In words: Binding affinity against 5-hydroxytryptamine 4 receptor using [3H]GR-113808 as radioligand in rat striatum. Type of experiment: tissue-based.
The target of experiment [2] is 5-hydroxytryptamine receptor 4 (Cavia porcellus) (UniProt O70528). Briefly: 5-hydroxytryptamine 4 receptor agonist activity as percent maximum 5-HT effect in response to electrical stimulation in male guinea pig ileum. In kind it is functional, tissue-based.
Chain of 5-hydroxytryptamine receptor 4 (Cavia porcellus) (O70528 whole entry): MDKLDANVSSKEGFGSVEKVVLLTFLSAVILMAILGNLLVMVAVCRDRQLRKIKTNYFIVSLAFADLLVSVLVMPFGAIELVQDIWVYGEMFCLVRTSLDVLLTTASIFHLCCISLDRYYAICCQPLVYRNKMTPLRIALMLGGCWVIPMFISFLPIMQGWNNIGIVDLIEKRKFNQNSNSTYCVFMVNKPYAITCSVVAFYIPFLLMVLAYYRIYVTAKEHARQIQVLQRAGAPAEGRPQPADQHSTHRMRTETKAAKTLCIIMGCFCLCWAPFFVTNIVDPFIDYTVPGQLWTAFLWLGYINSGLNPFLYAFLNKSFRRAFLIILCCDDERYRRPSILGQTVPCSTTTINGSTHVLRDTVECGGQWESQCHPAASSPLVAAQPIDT
Experiment [3] concerns the target T2, 5-hydroxytryptamine receptor 4 (Cavia porcellus, UniProt O70528). Briefly: 5-hydroxytryptamine 4 receptor agonist activity as increased response to electrical stimulation in guinea pig ileum. In kind it is functional, tissue-based.
The target in experiment [4] is T3, Serotonin 3 (5-HT3) receptor (Rattus norvegicus, UniProt P35563+Q9JJ16).
T3 sequence (P35563 whole entry): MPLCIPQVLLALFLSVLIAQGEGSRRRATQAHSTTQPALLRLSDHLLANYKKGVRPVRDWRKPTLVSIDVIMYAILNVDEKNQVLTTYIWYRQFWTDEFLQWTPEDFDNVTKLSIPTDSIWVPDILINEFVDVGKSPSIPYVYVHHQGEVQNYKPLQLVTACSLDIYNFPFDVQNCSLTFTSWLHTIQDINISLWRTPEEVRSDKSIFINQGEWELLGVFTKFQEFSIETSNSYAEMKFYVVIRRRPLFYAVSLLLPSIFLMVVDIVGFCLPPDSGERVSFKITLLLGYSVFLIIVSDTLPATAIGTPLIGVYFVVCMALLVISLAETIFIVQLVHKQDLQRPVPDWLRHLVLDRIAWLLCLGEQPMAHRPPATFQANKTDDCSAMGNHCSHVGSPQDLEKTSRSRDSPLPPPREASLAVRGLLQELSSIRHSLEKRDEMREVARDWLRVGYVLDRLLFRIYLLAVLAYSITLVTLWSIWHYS
T3 sequence (Q9JJ16 whole entry): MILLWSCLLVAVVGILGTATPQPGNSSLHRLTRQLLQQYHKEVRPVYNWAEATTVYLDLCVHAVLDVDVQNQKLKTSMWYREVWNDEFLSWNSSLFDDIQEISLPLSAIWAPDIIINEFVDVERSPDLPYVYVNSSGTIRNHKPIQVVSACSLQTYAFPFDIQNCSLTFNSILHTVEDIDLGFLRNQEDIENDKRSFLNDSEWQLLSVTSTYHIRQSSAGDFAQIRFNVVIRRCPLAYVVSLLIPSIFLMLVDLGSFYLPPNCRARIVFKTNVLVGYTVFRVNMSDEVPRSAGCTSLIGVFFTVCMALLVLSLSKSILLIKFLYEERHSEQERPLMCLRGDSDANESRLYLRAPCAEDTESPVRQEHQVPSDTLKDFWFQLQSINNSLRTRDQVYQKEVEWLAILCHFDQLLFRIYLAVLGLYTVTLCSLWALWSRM
In words: Binding affinity against 5-hydroxytryptamine 3 receptor using [3H]BRL-43694 in rat posterior cortex. In kind it is tissue-based.

The target of experiment [5] is T2, 5-hydroxytryptamine receptor 4. In words: 5-hydroxytryptamine 4 receptor antagonist activity expressed as the concentration which produced a 50% reduction of 5-HT induced contraction in guinea pig ileum. In kind it is functional, tissue-based.
For experiment [6] the target is unchanged. In words: 5-hydroxytryptamine 4 receptor antagonist activity expressed as the concentration which produced a 50% reduction of 5-HT induced contraction in guinea pig ileum; Not evaluable. Type of experiment: functional, tissue-based.
The target of experiment [7] is T1, 5-hydroxytryptamine receptor 4. Briefly: 5-hydroxytryptamine 4 receptor agonist activity was determined by the relaxation of the carbachol-contracted rat esophageal tunica muscularis mucosae. In kind it is functional.

T1 sequence (Q62758 whole entry): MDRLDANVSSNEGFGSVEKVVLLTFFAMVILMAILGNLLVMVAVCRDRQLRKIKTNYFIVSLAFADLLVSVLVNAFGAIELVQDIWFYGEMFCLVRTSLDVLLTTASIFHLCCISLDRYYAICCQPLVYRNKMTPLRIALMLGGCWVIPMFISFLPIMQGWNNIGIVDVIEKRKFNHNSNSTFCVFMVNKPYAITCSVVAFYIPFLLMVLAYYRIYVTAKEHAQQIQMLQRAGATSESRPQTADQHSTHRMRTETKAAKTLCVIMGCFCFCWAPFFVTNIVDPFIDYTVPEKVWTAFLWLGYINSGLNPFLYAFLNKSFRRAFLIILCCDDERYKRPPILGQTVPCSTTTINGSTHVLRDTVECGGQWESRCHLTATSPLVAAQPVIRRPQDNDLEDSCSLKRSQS
T2 sequence (O70528 whole entry): as the sequence (O70528 whole entry) above

For the compound `COc1cc(N)c(Cl)cc1C(=O)OC1CC2CCC(C1)N2C` (centres undefined), the figures for the Ki in experiment [1] and in experiment [4] were 0.0643 µM and 0.0032 µM, respectively. Moreover, the Activity in experiment [2] stood at 54%. The same compound gave an EC50 in experiment [3] of 0.027 µM.

On to `CCN(CC)CCNC(=O)c1cc(Cl)c(N)cc1OC` [METOCLOPRAMIDE], for which, in experiment [4], the Ki stood at 0.443 µM.

As to `COc1cc(N)c(Cl)cc1C(=O)OC1CCN(C)CC1`, the Ki in experiment [1] was found to be 0.023 µM; in experiment [4], 0.072 µM. This compound showed an Activity in experiment [2] of 53%. Besides, the response in experiment [3] was half-maximal at 0.11 µM (EC50). The same compound yielded an IC50 in experiment [5] of 0.06 µM.

For the compound `CCN(CC)CCOC(=O)c1cc(Cl)c(N)cc1OC`, the Ki in experiment [1] is 0.0053 µM; in experiment [4] it was 0.205 µM. The same compound registered an IC50 in experiment [6] of 0.077 µM. The same compound showed a concentration giving a half-maximal response (EC50) in experiment [3] of over 1 µM.

As to `COc1cc(N)c(Cl)cc1C(=O)OCCN1CCCCC1`, the IC50 in experiment [7] was 0.0024 µM. Besides, the inhibition constant (Ki) was determined as 0.00107 µM in experiment [1] and 0.782 µM in experiment [4]. In experiment [2], this compound showed an Activity of 80%.

Take `CCN1CCC(OC(=O)c2cc(Cl)c(N)cc2OC)CC1`: the Ki in experiment [1] was determined as 0.0103 µM; in experiment [4], 0.118 µM. The Activity in experiment [2] was determined as 60%. This compound also showed a concentration for a half-maximal effect (EC50) in experiment [3] of 0.022 µM.

`NCCc1c[nH]c2ccc(O)cc12` had an Activity in experiment [2] of 100%.

Turning to `CCN1CCCC(OC(=O)c2cc(Cl)c(N)cc2OC)C1` (centres undefined), the affinity in experiment [1] corresponds to a Ki of 0.0345 µM. In experiment [2], this compound returned an Activity of 79%. Besides, the EC50 in experiment [3] worked out at 0.044 µM.

Turning to `COc1cc(N)c(Cl)cc1C(=O)NC1CN2CCC1CC2` (centres undefined) [ZACOPRIDE], the inhibition constant (Ki) amounted to 0.753 µM in experiment [1] and 0.0007 µM in experiment [4]. In addition, the response in experiment [3] was half-maximal at 0.26 µM (EC50).
